Where two headings read alike, the source gives them in different places.
Tests used:
mTOR = molecular target: T1, mTOR (Homo sapiens, UniProt P42345); assay: Biological Assay: mTOR enzyme activity, mTOR immunoprecipitated from HeLa cell cytoplasmic extract, recombinant PHAS-1 as substrate; assay type: biochemical; details: Biological Assay
T1 construct: mTOR protein was isolated from HeLa cell cytoplasmic extract by immunoprecipitation; endogenous in cells; host or cells: HeLa cell cytoplasmic extract (immunoprecipitate)

[1] = molecular target: recombinant mTOR (FLAG-tagged, amino acid residues 1362 to 2549) (Homo sapiens, UniProt P42345); assay: Alternative Enzyme Assay: AlphaScreen, inhibition of phosphorylation by recombinant mTOR; assay type: biochemical; details: Alternative Enzyme Assay, single values; read-out: IC50
T47D cells = assay: Cell Proliferation Assay (GI50), sulforhodamine B (SRB) assay; assay type: cell-based; details: Homo sapiens, 120 hours, SRB
Protocol: Cell growth was assessed using the sulforhodamine B (SRB) assay (A). T47D (ECACC, 85102201) cells were routinely passaged in RPMI (Invitrogen, 42401018) plus 10% foetal calf serum (FCS), 1% L-glutamine (Gibco BRL, 25030) to a confluence not greater than 80%. To undertake the assay, T47D cells were seeded at 2.5×10^3 cells/well in […] RPMI plus 10% foetal calf serum, 1% L-glutamine in 96 well plates (Costar, 3904) and incubated at 37° C. (+5% CO2) in a humidified incubator. Once the cells had fully adhered (typically following 4-5 hours incubation) the plate was removed from the incubator and 10 μL of the diluent added to the control wells (A1-12 and B1-12). Compound was prepared in a six point semi-log dilution at 10× the final concentration required e.g. for a 6 point range of 30 μM to 100 nM in semi-log steps dilution started at 300 μM in stock plate. Dosing was completed by addition of 10 μL of compound at highest concentration to C1-12 through to the lowest concentration in H1-12. The plates were then incubated for 120 hours prior to SRB analysis.
Upon completion of incubation, media was removed and the cells fixed with […] of ice cold 10% (w/v) trichloroacetic acid. The plates were incubated at 4° C. for 20 minutes and then washed four times with water. Each well of cells was then stained with 100 μl of 0.4% (w/v) SRB (Sulforhodamine B, Sigma, Poole, Dorset, UK, Catalogue number S-9012) in 1% acetic acid for 20 minutes before washing four times with 1% acetic acid. Plates were then dried for 2 hours at room temperature. The dye from the stained cells was solubilized by the addition of 100 μl of 10 mM Tris Base into each well. Plates were gently shaken and left at room temperature for 30 minutes before measuring the optical density at 564 nm on a Microquant microtiter plate reader. The concentration of inhibitor eliciting a 50% reduction in growth (GI50) was determined by analysis of staining intensity of the treated cells as a percentage of the vehicle control wells using Excelfit software.
(A) Skehan, P., Storung, R., Scudiero, R., Monks, A., McMahon, J., Vistica, D., Warren, J. T., Bokesch, H., Kenny, S. and Boyd, M. R. (1990) New […] cytotoxicity assay for anticancer-drug screening. J. Natl. Cancer Inst. 82, 1107-1112.

[2] = system: phosphorylation of Serine 473 in Akt in MDA-MB-468 cells; assay: In Vitro phospho-Ser473 Akt Assay (Acumen Explorer); assay type: cell-based; details: Homo sapiens
[3] = upper bounds, read-out: IC50 values against mTOR

IC50 (mTOR; [3]) [nM] | GI50 (T47D cells; upper bounds) [nM] | GI50 (T47D cells) [nM] | Compound | further results
 |  |  | C[C@@H]1CN(c2nc(N3CCOCC3)c3ccc(-c4ccsc4)nc3n2)C[C@H](C)O1 [Comparative Example 1k, reference compound] | IC50 (mTOR; single values, read-out: IC50): 33 nM; IC50 [1]: 225 nM; GI50 (T47D cells; single values): 268 nM; IC50 ([2]; MDA-MB-468 cells, single values, read-out: IC50 (phospho-Ser473 Akt assay)): 412 nM
< 1000 | < 300 |  | COc1ccc(-c2ccc3c(N4CCOCC4)nc(N4C[C@@H](C)O[C@@H](C)C4)nc3n2)cc1CNc1ccc(OCc2ccccc2)cc1 [Example 8ba] | 
< 100 | < 300 |  | COc1ccc(-c2ccc3c(N4CCOCC4)nc(N4C[C@@H](C)O[C@@H](C)C4)nc3n2)cc1CNCC(O)c1cccc(O)c1 (stereo partly drawn) [Example 8bb] | 
< 100 | < 300 |  | COc1ccc(-c2ccc3c(N4CCOCC4)nc(N4C[C@@H](C)O[C@@H](C)C4)nc3n2)cc1CNCCCc1ccccc1 [Example 8bc] | 
< 1000 | < 300 |  | COc1ccc(-c2ccc3c(N4CCOCC4)nc(N4C[C@@H](C)O[C@@H](C)C4)nc3n2)cc1CN[C@H](CO)CCSC [Example 8bd] | 
< 100 | < 300 |  | COC[C@H](Cc1ccccc1)NCc1cc(-c2ccc3c(N4CCOCC4)nc(N4C[C@@H](C)O[C@@H](C)C4)nc3n2)ccc1OC [Example 8be] | 
< 1000 | < 300 |  | CCCCCOc1ccc(NCc2cc(-c3ccc4c(N5CCOCC5)nc(N5C[C@@H](C)O[C@@H](C)C5)nc4n3)ccc2OC)cc1 [Example 8bf] | 
< 100 | < 300 |  | COc1ccc(-c2ccc3c(N4CCOCC4)nc(N4C[C@@H](C)O[C@@H](C)C4)nc3n2)cc1CNCc1ccc2c(c1)OCO2 [Example 8bg] | 
< 100 |  | < 1000 | COc1ccc(-c2ccc3c(N4CCOCC4)nc(N4C[C@@H](C)O[C@@H](C)C4)nc3n2)cc1CNCCc1cnc[nH]1 [Example 8c] | 
< 100 | < 300 |  | COc1ccc(-c2ccc3c(N4CCOCC4)nc(N4C[C@@H](C)O[C@@H](C)C4)nc3n2)cc1CNCCO [Example 8d] | 
< 100 |  | < 1000 | COc1ccc(CCNCc2cc(-c3ccc4c(N5CCOCC5)nc(N5C[C@@H](C)O[C@@H](C)C5)nc4n3)ccc2OC)cc1 [Example 8e] | 
< 100 | < 300 |  | CNCc1cc(-c2ccc3c(N4CCOCC4)nc(N4C[C@@H](C)O[C@@H](C)C4)nc3n2)ccc1OC [Example 8f] | 
< 100 | < 300 |  | COc1ccc(-c2ccc3c(N4CCOCC4)nc(N4C[C@@H](C)O[C@@H](C)C4)nc3n2)cc1CNCC1CC1 [Example 8g] | 
< 100 |  | < 1000 | CCN(CC)CCCNCc1cc(-c2ccc3c(N4CCOCC4)nc(N4C[C@@H](C)O[C@@H](C)C4)nc3n2)ccc1OC [Example 8h] | 
< 100 | < 300 |  | COc1ccc(-c2ccc3c(N4CCOCC4)nc(N4C[C@@H](C)O[C@@H](C)C4)nc3n2)cc1CNC1CCOCC1 [Example 8i] | 
< 100 | < 300 |  | COc1ccc(-c2ccc3c(N4CCOCC4)nc(N4C[C@@H](C)O[C@@H](C)C4)nc3n2)cc1CNC1CCCC1 [Example 8k] | 

IC50 (mTOR; [3]) [nM] | GI50 (T47D cells; upper bounds) [nM] | GI50 (T47D cells) [nM] | Compound | further results
< 100 | < 300 |  | CCCCNCc1cc(-c2ccc3c(N4CCOCC4)nc(N4C[C@@H](C)O[C@@H](C)C4)nc3n2)ccc1OC [Example 8l] | 
< 100 |  | < 1000 | COc1ccc(-c2ccc3c(N4CCOCC4)nc(N4C[C@@H](C)O[C@@H](C)C4)nc3n2)cc1CNCCC(C)C [Example 8m] | 
< 100 |  | < 1000 | COc1ccc(-c2ccc3c(N4CCOCC4)nc(N4C[C@@H](C)O[C@@H](C)C4)nc3n2)cc1CNC1CCCCCCC1 [Example 8n] | 
< 100 |  | < 1000 | COc1ccc(-c2ccc3c(N4CCOCC4)nc(N4C[C@@H](C)O[C@@H](C)C4)nc3n2)cc1CNC1CCCCC1 [Example 8o] | 
< 1000 |  | < 1000 | COc1ccc(-c2ccc3c(N4CCOCC4)nc(N4C[C@@H](C)O[C@@H](C)C4)nc3n2)cc1CNC1CCC(C)CC1 (stereo partly drawn) [Example 8p] | 
< 1000 |  | < 1000 | COc1ccc(-c2ccc3c(N4CCOCC4)nc(N4C[C@@H](C)O[C@@H](C)C4)nc3n2)cc1CNCCC(C)(C)C [Example 8q] | 
< 1000 | < 300 |  | COc1ccc(-c2ccc3c(N4CCOCC4)nc(N4C[C@@H](C)O[C@@H](C)C4)nc3n2)cc1CNC(C)C [Example 8r] | 
< 1000 |  | < 1000 | CCOCCCNCc1cc(-c2ccc3c(N4CCOCC4)nc(N4C[C@@H](C)O[C@@H](C)C4)nc3n2)ccc1OC [Example 8s] | 
< 1000 | < 300 |  | COc1ccc(-c2ccc3c(N4CCOCC4)nc(N4C[C@@H](C)O[C@@H](C)C4)nc3n2)cc1CNC(C)CC(C)C (stereo partly drawn) [Example 8t] | 
< 1000 | < 300 |  | COc1ccc(-c2ccc3c(N4CCOCC4)nc(N4C[C@@H](C)O[C@@H](C)C4)nc3n2)cc1CNCC(C)C [Example 8u] | 
< 1000 |  | < 1000 | COCCNCc1cc(-c2ccc3c(N4CCOCC4)nc(N4C[C@@H](C)O[C@@H](C)C4)nc3n2)ccc1OC [Example 8v] | 
< 1000 |  | < 1000 | COc1ccc(-c2ccc3c(N4CCOCC4)nc(N4C[C@@H](C)O[C@@H](C)C4)nc3n2)cc1CNC1CCCCC1C (stereo partly drawn) [Example 8w] | 
< 1000 |  | < 1000 | C#CC1(NCc2cc(-c3ccc4c(N5CCOCC5)nc(N5C[C@@H](C)O[C@@H](C)C5)nc4n3)ccc2OC)CCCCC1 [Example 8x] | 
< 1000 |  | < 1000 | COc1ccc(-c2ccc3c(N4CCOCC4)nc(N4C[C@@H](C)O[C@@H](C)C4)nc3n2)cc1CNC(Cc1ccc([N+](=O)[O-])cc1)C(=O)O (stereo partly drawn) [Example 8y] | 
< 10000 |  | < 1000 | COc1ccc(-c2ccc3c(N4CCOCC4)nc(N4C[C@@H](C)O[C@@H](C)C4)nc3n2)cc1CNCc1cccc(OC)c1OC [Example 8z] | 
 |  |  | C[C@@H]1CN(c2nc(N3CCOC[C@@H]3C)c3ccc(-c4ccsc4)nc3n2)C[C@H](C)O1 [Example 11k] | GI50 (T47D cells; single values): 32 nM; IC50 ([2]; MDA-MB-468, read-out: IC50 (phospho-Ser473 Akt assay)): 83 nM
